Values joined by “and” are separate entries in the source; they are usually repeats but may differ in a detail not shown here. Equal entries are not always repeated. Where two headings read alike, the source gives them in different places.
Molecular target: T1, BSA-MG glycation model (bovine serum albumin + methylglyoxal) (Bos taurus, UniProt P02769)
T1 construct: purchased Merck Marker Pvt; Ltd. (Germany)
Test: in vitro BSA-MG glycation model (fluorescence of AGE formation)
Type: biochemical
Details: for activity against the protein glycation (in words): in vitro protein glycation, compared with standard rutin
Procedure: Bovine serum albumin (BSA) was purchased from Merck Marker Pvt. Ltd. (Germany), rutin and methylglyoxal (MG) (40% aqueous solution) were from Sigma Aldrich (Japan), sodium dihydrogen phosphate (NaH2PO4), disodium hydrogen phosphate (Na2HPO4) and sodium azide (NaN3) were purchased from Scharlau Chemie, S. A. (Spain), while dimethyl sulphoxide (DMSO) was purchased from Fischer Scientific (UK).
The total reaction volume of the assay was 200 μL, having final concentrations of 10 mg/mL BSA, 14 mM methylglyoxal, and 1 mM test compounds. 10 mg/mL solution of BSA and 14 mM methylglyoxal was prepared in 0.1 M phosphate buffer (pH 7.4), containing sodium azide (NaN3) (30 mM) as antimicrobial agent, while 1 mM solutions of test compounds were prepared in the DMSO. Assay was performed in triplicate. Each reaction mixtures were comprised of 50 μL BSA, 50 μL methylglyoxal, 20 μL test compound and 80 μL phosphate buffer (pH 7.4). The reaction mixture was incubated under aseptic conditions at 37° C. for 9 days.
After completion of nine days of incubation, each sample was examined for the development of specific fluorescence (excitation 330 nm; emission 420 nm) against blank on a microtitre plate reader (SpectraMax M2, Molecular Devices, CA, USA). The percent inhibition of AGE formation by the test sample versus control was calculated by using the following formula:
% Inhibition=(1−Fluorescence of test sample/Fluorescence of the control)×100
The IC50 (i.e. the concentration of test samples that inhibit the process of glycation to 50%) was determined by monitoring the effect of various concentrations (ranges from 1000-50 μM) of test compounds. The IC50 values were calculated by using EZ-FIT Enzyme Kinetics Program (Perrella Scientific Inc., Amherst, USA). The antiglycation potential of test compounds was compared with rutin, which was used as standard inhibitor.

[1] = BSA 10 mg/mL, methylglyoxal 14 mM, pH 7.4, 37° C., 9 days, test concentrations 1000-50 μM, triplicate, NA = not active, read-out: Antiglycation Activity IC50 ± SEM
[2] = read-out: % inhibition against BSA-MG glycation model, 1 mM test compound, BSA 10 mg/mL, methylglyoxal 14 mM, 37° C., 9 days
[3] = Antiglycation Activity IC50 ± SEM, BSA 10 mg/mL, methylglyoxal 14 mM, pH 7.4, 37° C., 9 days, test concentrations 1000-50 μM, triplicate, NA = not active
[4] = 1 mM test compound, BSA 10 mg/mL, methylglyoxal 14 mM, 37° C., 9 days, read-out: % inhibition against BSA-MG glycation model

T1 sequence (P02769 25-607): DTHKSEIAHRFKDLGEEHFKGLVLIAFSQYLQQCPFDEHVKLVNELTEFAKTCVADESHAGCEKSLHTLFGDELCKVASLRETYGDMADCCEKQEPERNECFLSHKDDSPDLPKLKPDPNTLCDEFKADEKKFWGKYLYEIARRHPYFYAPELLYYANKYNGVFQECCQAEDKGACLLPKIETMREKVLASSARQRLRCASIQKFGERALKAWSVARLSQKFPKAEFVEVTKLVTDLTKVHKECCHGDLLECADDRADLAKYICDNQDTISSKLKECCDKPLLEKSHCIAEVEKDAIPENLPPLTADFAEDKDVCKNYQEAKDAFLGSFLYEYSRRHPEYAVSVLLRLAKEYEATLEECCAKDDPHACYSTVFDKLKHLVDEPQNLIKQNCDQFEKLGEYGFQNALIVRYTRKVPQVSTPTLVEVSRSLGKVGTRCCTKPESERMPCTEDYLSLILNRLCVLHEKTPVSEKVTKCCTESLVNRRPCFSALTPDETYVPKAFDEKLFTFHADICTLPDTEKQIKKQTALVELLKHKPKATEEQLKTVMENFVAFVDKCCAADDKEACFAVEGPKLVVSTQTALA

Compound | inhibition at 1000 µM [2] | IC50 [3] | also measured
O=C1Nc2ccccc2/C1=C\c1cccc(O)c1 [Compound 1, 3-[(E)-(3-hydroxyphenyl)methylidene]-1,3-dihydro-2H-indol-2-one] | – | – | IC50 [1]: 282 µM and 194 to 455 µM; activity against the protein glycation (in words): potent activity
O=C1Nc2ccccc2/C1=C\c1cccc2ccccc12 [Compound 2, 3-[(E)-1-naphthylmethylidene]-1,3-dihydro-2H-indol-2-one] | < 50% | – | IC50 (bovine, 9 days, pH 7.4): 194 to 455 µM
CCOc1cccc(/C=C2/C(=O)Nc3ccccc32)c1O [Compound 3, 3-[(E)-(3-ethoxy-2-hydroxyphenyl)methylidene]-1,3-dihydro-2H-indol-2-one] | – | 268 µM and 194 to 455 µM | activity against the protein glycation (in words): potent activity
O=C1Nc2ccccc2/C1=C\c1c2ccccc2cc2ccccc12 [Compound 4, 3-[(E)-9-anthrylmethylidene]-1,3-dihydro-2H-indol-2-one] | – | 456 µM and 194 to 455 µM | –
O=C1Nc2ccccc2/C1=C\c1ccc(O)cc1 [Compound 5, 3-[(E)-(4-hydroxyphenyl)methylidene]-1,3-dihydro-2H-indol-2-one] | – | – | inhibition at 1000 µM [4]: < 50%
CCOc1ccc(/C=C2/C(=O)Nc3ccccc32)cc1 [Compound 6, 3-[(E)-(4-ethoxyphenyl)methylidene]-1,3-dihydro-2H-indol-2-one] | – | – | inhibition at 1000 µM [4]: < 50%
COc1ccccc1/C=C1/C(=O)Nc2ccccc21 [Compound 7, 3-[(E)-(2-methoxyphenyl)methylidene]-1,3-dihydro-2H-indol-2-one] | < 50% | – | IC50 (bovine, 9 days, pH 7.4): 194 to 455 µM
O=C1Nc2ccccc2/C1=C\c1ccc(F)cc1 [Compound 8, 3-[(E)-(4-fluorophenyl)methylidene]-1,3-dihydro-2H-indol-2-one] | – | 211 ± 4.1 µM | activity against the protein glycation (in words): potent activity
O=C1Nc2ccccc2/C1=C\c1ccccc1F [Compound 9, 3-[(E)-(2-fluorophenyl)methylidene]-1,3-dihydro-2H-indol-2-one] | < 50% | – | –
CSc1ccc(/C=C2/C(=O)Nc3ccccc32)cc1 [Compound 10, 3-[(E)-(4-methylsulfanylphenyl)methylidene]-1,3-dihydro-2H-indol-2-one] | < 50% | – | –
COc1cccc(/C=C2/C(=O)Nc3ccccc32)c1O [Compound 11, 3-[(E)-(2-hydroxy-3-methoxyphenyl)methylidene]-1,3-dihydro-2H-indol-2-one] | – | 374 µM and 194 to 455 µM | –
O=C1Nc2ccccc2/C1=C\c1ccc(Cl)c(Cl)c1 [Compound 12, 3-[(E)-(3,4-dichlorophenyl)methylidene]-1,3-dihydro-2H-indol-2-one] | < 50% | – | –
Cc1ccc(O)c(/C=C2/C(=O)Nc3ccccc32)c1 [Compound 13, 3-[(E)-(2-hydroxy-5-methylphenyl)methylidene]-1,3-dihydro-2H-indol-2-one] | – | 194 µM and 194 to 455 µM | activity against the protein glycation (in words): potent activity
O=C1Nc2ccccc2/C1=C\c1cccc(Cl)c1 [Compound 14, 3-[(E)-(3-chlorophenyl)methylidene]-1,3-dihydro-2H-indol-2-one] | – | 151 µM and 150 µM | activity against the protein glycation (in words): potent activity
O=C1Nc2ccccc2/C1=C\c1ccc([N+](=O)[O-])cc1 [Compound 15, 3-[(E)-(4-nitrophenyl)methylidene]-1,3-dihydro-2H-indol-2-one] | – | – | inhibition at 1000 µM [4]: < 50%
O=C1Nc2ccccc2/C1=C\c1cc(Cl)ccc1O [Compound 16, 3-[(E)-(5-chloro-2-hydroxyphenyl)methylidene]-1,3-dihydro-2H-indol-2-one] | < 50% | – | –
O=C1Nc2ccccc2/C1=C\c1cccc([N+](=O)[O-])c1 [Compound 17, 3-[(E)-(3-nitrophenyl)methylidene]-1,3-dihydro-2H-indol-2-one] | < 50% | – | –
O=C1Nc2ccccc2/C1=C\c1ccc(Cl)cc1Cl [Compound 18, 3-[(E)-(2,4-dichlorophenyl)methylidene]-1,3-dihydro-2H-indol-2-one] | – | 856.7 ± 2.4 µM | –
O=C1Nc2ccccc2/C1=C\c1ccccc1O [Compound 20, 3-[(E)-(2-hydroxyphenyl)methylidene]-1,3-dihydro-2H-indol-2-one] | – | – | IC50 [1]: 285 µM and 194 to 455 µM; activity against the protein glycation (in words): potent activity
O=C1Nc2ccccc2/C1=C\c1ccc(Cc2ccccc2)cc1 [Compound 21, 3-[(E)-(4-benzylphenyl)methylidene]-1,3-dihydro-2H-indol-2-one] | < 50% | – | –
C[C@@H]1O[C@@H](OC[C@H]2O[C@@H](Oc3c(-c4ccc(O)c(O)c4)oc4cc(O)cc(O)c4c3=O)[C@H](O)[C@@H](O)[C@@H]2O)[C@H](O)[C@H](O)[C@H]1O [Rutin, reference compound] | – | – | IC50 [1]: 294 µM
